Measured values as given in US8877765B2, “Highly soluble pyrimido-dione-quinoline compounds and their use in the treatment of cancer” (The United States of America as represented by the …, priority 2006, dated 2014).
Where a SMILES comes first, the peptide text is derived from it. [ ]: non-standard residue; d: D form. Nle = CCCC[C@H](N)C(=O)O

What was measured:
[1] = biological target: T1, Hdm2 (Homo sapiens, UniProt Q00987); conditions: U2OS cells; FIG. 6
[2] = biological target: gp78 (AMFR) (Homo sapiens, UniProt Q9UKV5); assay: E3 specificity: level of transfected gp78 in MEFs expressing neither Mdm2 nor p53; conditions: immunoblotting, FIG. 5
Chain of gp78 (AMFR) (Q9UKV5 whole entry, species assumed): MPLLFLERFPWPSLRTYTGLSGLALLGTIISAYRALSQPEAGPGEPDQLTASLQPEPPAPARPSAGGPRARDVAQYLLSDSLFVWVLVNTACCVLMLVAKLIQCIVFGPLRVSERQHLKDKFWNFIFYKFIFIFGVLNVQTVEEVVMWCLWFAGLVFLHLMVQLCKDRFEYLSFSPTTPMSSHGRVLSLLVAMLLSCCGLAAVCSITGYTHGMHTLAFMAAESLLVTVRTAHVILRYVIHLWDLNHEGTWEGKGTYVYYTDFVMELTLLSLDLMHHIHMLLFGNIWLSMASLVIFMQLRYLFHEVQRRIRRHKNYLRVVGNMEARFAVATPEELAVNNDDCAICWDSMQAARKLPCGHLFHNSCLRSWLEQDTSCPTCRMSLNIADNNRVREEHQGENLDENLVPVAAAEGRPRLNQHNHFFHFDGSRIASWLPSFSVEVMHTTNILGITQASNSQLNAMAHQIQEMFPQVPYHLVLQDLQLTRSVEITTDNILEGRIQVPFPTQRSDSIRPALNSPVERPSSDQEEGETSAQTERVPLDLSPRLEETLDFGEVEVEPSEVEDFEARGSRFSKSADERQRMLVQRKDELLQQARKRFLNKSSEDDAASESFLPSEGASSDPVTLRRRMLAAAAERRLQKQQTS
Description: (§1) Following treatment with ALLN, 1, 2 (10-(4-methyl-phenyl)-7-nitro-10H-pyrimido[4,5-b]quinoline-2,4-dione), 3 (10-(4-chloro-phenyl)-7-nitro-10H-pyrimido[4,5-b]quinoline-2,4-dione), and 4 (10-(3-chloro-phenyl)-7-nitro-10H-pyrimido[4,5-b]quinoline-2,4-dione), levels of the E3s were examined by immunoblotting with specific antibodies.

[3] = biological target: T1, Hdm2; assay: E3 specificity: level of transfected Hdm2 in MEFs expressing neither Mdm2 nor p53; conditions: immunoblotting, FIG. 5
Description: as §1

[4] = tested on: AO7 (RNF25); assay: E3 specificity: level of transfected AO7 in MEFs expressing neither Mdm2 nor p53; conditions: immunoblotting, FIG. 5
Description: as §1

[5] = tested on: p53; assay: p53 response element-driven luciferase reporter in U2OS cells; assay type: cell-based; conditions: 18 hours, FIG. 3
Description: U2OS cells stably transfected with a p53 response element-driven luciferase were treated with indicated concentration of compounds for 18 hours. The cells were then harvested and lysed to measure luciferase activity using the luciferase assay system (Promega) according to manufacturer's instruction.

[6] = tested on: Hdm2 and p53; assay: Accumulation of Hdm2 and p53 in non-transformed RPE cells (immunoblot); assay type: cell-based, human; conditions: 8 hours, 5 μM or 10 μM solution in PBS, or 5 μm solution in DMSO, FIG. 1
Description: Human retina pigment epithelial (RPE) cells were cultured with HyQ DME/F (HyClone) supplemented with 10% FCS and 2.5% Sodium Bicarbonate. They were harvested with Trpsin-EDTA and seeded into a 12-well tissue culture cluster and incubated for 18-40 hours to reach 80% confluent. Following treatment with indicated compounds for 8 hours, the cells were harvested and lysed with RIPA buffer. Following removal of insoluble pellet by centrifugation for 20 minutes at 10000 rpm, the lysate was separated on a 4-20% gradient SDS-polyacrylamide gel and transferred onto nitrocellulose membrane. The membrane was then blotted with anti-p53 antibody (DO-1) anti-Hdm2 antibodies (Ab-1 and Ab-2). After extensive washing with PBS containing 0.5% Triton x-100, it was incubated with HRP-conjugated donkey anti-mouse antibody and visualized using enhanced chemiluminescence.

[7] = tested on: tumor cells expressing wild type p53; assay: Apoptosis-inducing activity in tumor cell lines that do or do not express p53; assay type: cell-based; conditions: pair of cell lines that either do or do not express p53; FIG. 7
[8] = Additional experiments on DNA damage (data not shown)

T1 sequence (Q00987 whole entry): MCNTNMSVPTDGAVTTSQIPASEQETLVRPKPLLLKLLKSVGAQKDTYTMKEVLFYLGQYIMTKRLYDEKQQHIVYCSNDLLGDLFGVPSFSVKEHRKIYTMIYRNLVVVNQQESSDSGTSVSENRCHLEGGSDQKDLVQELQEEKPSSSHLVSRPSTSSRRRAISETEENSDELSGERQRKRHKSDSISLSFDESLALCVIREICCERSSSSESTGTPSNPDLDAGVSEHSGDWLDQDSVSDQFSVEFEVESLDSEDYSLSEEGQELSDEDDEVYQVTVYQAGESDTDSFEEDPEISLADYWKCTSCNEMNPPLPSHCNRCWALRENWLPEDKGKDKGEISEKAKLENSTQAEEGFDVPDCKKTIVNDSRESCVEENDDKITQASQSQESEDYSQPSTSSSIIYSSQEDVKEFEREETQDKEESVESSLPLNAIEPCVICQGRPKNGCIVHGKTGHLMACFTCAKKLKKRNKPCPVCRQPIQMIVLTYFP

accumulation of ubiquitylated p53 [1]	degradation / stabilization of p53 and Hdm2 [1]	level of gp78 [2]	level of Hdm2 [3]	Compound	level of AO7 [4]	capacity to activate a p53 reporter (luciferase activity) [5]	p53 reporter activity compared with proteosome inhibitor and Adriamycin ([5]; concentration of 10 μM)	accumulation of both Hdm2 and p53 [6]	killing of tumor cells by p53 status [7]	functioning by inducing DNA damage [8]
easily detectable	stabilized Hdm2 and p53	higher levels	higher levels	CCCC[C@@H](C=O)NC(=O)[C@H](CC(C)C)NC(=O)[C@H](CC(C)C)NC(C)=O [ALLN] (Ac-Leu-Leu-[Nle]-aldehyde)	higher levels					
		little effects		CN(C)CCCNc1c2c(=O)n(C)c(=O)nc-2n(C)c2ccccc12 [Compound 1, 5-(3-Dimethylamino-propylamino)-3,10-dimethyl-10H-pyrimido[4,5-b]quinoline-2,4-dione]		high capacity to activate a p53 reporter	much greater than proteosome inhibitor and Adriamycin	significant accumulation of both Hdm2 and p53	preferential killing of tumor cells expressing wild type p53	ruled out
